Drawing on PMC5341070, “Small molecule inhibitors block Gas6-inducible TAM activation and tumorigenicity” (Scientific Reports, 2017), this text covers percent of control binding and remaining binding for two compounds.

Common to all, as to test: biochemical
Holding throughout (set-up): KINOMEscan (DiscoverX) competition binding screen of 97 human kinases, percent of control at 10 uM

Assay [1] addresses T1, TRKA (Homo sapiens, UniProt P04629).
T1 construct: gene NTRK1
The procedure:
(§1) The KINOMEscan profiling of the inhibitors were performed as per directions by the manufacturer (DiscoverX) against a panel of human protein kinases.

Assay [2] deals with MAP3K4 (Homo sapiens, UniProt Q9Y6R4). Here is the method: as §1
For assay [3], the target named is T2, LKB1 (Homo sapiens, UniProt Q15831).
T2 construct: gene STK11
The procedure: as §1

In assay [4] the target is CDK9 (Homo sapiens, UniProt P50750). Here is the method: as §1
In assay [5] the target is RET (Homo sapiens, UniProt P07949). The procedure:
as §1

Assay [6] addresses T3, ERK1 (Homo sapiens, UniProt P27361).
T3 construct: gene MAPK3
Here is the method:
as §1

Assay [7] deals with PIK3C2B (Homo sapiens, UniProt O00750). The procedure: as §1
Assay [8] addresses T4, SNARK (Homo sapiens, UniProt Q9H093).
T4 construct: gene NUAK2
Here is the method: as §1

Assay [9] concerns the target AURKA (Homo sapiens, UniProt O14965). Here is the method:
as §1

In assay [10] the target is RAF1 (Homo sapiens, UniProt P04049). The procedure: as §1
Assay [11] deals with ROCK2 (Homo sapiens, UniProt O75116). Here is the method:
as §1

For assay [12], the target named is PIK3CA (Homo sapiens, UniProt P42336). Here is the method: as §1
Assay [13] addresses PAK1 (Homo sapiens, UniProt Q13153). The procedure:
as §1

Assay [14] deals with BMPR2 (Homo sapiens, UniProt Q13873). The procedure: as §1
Assay [15] addresses T5, ADCK3 (Homo sapiens, UniProt Q8NI60).
T5 construct: gene COQ8A
Here is the method: as §1

Assay [16] deals with T6, IKK-beta (Homo sapiens, UniProt O14920).
T6 construct: gene IKBKB
Here is the method: as §1

For assay [17], the target named is T7, p38-alpha (Homo sapiens, UniProt Q16539).
T7 construct: gene MAPK14
Here is the method: as §1

Assay [18] addresses AKT2 (Homo sapiens, UniProt P31751). The procedure: as §1
Assay [19] deals with PIM3 (Homo sapiens, UniProt Q86V86). The procedure:
as §1

Assay [20] concerns the target PLK4 (Homo sapiens, UniProt O00444). The procedure:
as §1

Assay [21] addresses ERBB4 (Homo sapiens, UniProt Q15303). Here is the method: as §1
Assay [22] concerns the target FGFR2 (Homo sapiens, UniProt P21802). Here is the method: as §1
The target in assay [23] is SRC (Homo sapiens, UniProt P12931). The procedure: as §1
Assay [24] concerns the target FGFR3 (Homo sapiens, UniProt P22607). The procedure:
as §1

Where [25] appears, read: read-out: R428 %Ctrl @ 10000nM, binding competition.
[26] abbreviates: binding competition, % of control, read-out: RU-301 %Ctrl @ 10000nM.

PIK3C2B, sequence (O00750 whole entry): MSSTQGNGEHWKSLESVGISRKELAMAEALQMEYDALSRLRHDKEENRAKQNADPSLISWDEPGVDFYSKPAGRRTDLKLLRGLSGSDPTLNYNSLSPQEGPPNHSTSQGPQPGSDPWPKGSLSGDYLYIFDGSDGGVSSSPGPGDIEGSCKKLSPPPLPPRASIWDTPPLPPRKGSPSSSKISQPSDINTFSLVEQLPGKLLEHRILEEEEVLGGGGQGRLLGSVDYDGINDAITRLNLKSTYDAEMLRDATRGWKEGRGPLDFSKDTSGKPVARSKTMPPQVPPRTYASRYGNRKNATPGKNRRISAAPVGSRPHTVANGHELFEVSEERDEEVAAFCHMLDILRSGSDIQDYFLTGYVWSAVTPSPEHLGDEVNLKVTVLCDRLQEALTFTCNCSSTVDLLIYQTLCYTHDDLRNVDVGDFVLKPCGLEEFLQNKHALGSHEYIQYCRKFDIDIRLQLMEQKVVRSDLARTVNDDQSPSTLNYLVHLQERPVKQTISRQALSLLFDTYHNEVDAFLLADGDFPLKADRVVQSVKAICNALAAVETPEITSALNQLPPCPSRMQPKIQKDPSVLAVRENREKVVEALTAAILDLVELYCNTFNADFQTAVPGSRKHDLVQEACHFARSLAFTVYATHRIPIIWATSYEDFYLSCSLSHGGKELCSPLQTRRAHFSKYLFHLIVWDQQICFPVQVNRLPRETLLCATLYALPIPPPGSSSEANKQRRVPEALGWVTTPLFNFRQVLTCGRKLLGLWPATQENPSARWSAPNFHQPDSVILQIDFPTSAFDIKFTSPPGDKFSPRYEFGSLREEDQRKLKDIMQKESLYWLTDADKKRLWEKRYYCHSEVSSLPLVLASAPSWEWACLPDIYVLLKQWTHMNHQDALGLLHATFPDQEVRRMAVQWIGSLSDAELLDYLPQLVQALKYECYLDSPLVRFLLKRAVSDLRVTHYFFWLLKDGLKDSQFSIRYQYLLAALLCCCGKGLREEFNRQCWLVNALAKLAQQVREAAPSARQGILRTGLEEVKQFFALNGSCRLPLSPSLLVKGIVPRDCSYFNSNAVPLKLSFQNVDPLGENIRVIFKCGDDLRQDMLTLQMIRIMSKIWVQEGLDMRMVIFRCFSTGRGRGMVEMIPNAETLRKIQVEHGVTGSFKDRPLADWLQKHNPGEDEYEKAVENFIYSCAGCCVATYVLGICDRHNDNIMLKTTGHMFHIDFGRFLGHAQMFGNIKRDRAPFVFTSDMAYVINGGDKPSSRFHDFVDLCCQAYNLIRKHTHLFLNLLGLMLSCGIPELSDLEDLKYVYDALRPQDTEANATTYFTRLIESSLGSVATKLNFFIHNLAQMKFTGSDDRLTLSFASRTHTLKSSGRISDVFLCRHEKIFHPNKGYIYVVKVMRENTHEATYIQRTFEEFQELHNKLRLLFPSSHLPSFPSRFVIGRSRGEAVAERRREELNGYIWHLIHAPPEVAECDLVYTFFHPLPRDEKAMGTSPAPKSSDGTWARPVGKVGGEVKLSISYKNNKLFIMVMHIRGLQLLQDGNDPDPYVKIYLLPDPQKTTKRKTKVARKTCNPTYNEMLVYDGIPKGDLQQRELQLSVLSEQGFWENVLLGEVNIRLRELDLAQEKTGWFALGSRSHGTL
RAF1, sequence (P04049 whole entry): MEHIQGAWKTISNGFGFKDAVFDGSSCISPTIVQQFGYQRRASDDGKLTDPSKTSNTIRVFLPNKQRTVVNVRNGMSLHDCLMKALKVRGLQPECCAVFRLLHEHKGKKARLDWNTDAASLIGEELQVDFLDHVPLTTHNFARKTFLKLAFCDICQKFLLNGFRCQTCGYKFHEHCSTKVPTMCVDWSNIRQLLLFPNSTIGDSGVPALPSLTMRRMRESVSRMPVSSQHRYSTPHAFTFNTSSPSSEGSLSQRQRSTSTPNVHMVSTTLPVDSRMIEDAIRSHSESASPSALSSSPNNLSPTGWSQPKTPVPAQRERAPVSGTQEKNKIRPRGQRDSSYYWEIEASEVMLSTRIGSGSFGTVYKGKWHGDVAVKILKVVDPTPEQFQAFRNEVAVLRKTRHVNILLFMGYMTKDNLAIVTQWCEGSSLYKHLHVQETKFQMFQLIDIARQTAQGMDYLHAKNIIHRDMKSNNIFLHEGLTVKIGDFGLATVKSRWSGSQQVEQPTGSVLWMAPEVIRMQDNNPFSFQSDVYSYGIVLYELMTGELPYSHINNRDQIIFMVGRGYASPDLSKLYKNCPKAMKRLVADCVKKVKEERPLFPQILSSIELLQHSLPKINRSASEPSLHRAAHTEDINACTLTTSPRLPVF
FGFR2, sequence (P21802 whole entry): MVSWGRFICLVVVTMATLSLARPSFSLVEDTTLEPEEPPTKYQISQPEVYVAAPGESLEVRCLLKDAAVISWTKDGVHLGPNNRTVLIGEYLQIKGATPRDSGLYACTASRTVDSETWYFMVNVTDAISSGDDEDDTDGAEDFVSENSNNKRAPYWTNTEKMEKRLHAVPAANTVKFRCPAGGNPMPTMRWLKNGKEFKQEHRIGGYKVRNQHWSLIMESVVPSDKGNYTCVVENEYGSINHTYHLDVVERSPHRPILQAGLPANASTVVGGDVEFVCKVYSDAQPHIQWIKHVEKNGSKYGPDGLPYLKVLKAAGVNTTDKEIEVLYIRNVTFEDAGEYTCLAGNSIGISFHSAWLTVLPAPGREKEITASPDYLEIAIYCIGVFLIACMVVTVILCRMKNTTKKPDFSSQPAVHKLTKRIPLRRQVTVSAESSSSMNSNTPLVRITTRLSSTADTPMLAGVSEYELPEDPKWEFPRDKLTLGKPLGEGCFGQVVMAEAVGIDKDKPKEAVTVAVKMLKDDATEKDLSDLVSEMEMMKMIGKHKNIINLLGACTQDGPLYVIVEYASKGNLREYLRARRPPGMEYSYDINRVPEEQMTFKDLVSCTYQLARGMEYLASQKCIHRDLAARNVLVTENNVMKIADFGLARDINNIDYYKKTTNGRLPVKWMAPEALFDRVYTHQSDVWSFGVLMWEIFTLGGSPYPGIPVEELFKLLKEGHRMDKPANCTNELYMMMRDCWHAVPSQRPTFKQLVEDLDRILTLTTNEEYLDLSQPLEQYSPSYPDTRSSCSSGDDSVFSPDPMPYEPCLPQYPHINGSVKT
T6 sequence (O14920 whole entry): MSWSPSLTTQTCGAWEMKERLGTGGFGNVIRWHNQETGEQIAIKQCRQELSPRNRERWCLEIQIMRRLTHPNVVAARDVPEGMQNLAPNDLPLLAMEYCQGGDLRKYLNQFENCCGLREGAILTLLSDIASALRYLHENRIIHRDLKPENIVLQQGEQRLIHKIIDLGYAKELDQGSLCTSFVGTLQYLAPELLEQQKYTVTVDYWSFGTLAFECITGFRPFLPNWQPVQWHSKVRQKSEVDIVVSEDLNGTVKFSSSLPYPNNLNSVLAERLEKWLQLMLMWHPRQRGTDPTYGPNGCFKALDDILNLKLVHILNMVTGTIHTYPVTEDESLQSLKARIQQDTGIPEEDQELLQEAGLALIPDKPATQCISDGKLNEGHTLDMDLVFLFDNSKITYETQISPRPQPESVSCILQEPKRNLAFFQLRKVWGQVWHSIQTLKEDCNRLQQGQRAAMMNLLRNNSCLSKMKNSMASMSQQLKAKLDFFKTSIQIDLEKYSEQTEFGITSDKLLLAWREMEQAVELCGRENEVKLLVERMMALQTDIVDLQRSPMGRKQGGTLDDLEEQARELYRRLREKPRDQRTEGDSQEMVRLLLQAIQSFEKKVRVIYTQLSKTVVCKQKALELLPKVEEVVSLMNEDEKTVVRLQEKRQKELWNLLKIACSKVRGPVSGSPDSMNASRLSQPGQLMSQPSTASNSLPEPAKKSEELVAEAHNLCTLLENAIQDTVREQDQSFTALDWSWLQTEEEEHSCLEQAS
CDK9, sequence (P50750 whole entry): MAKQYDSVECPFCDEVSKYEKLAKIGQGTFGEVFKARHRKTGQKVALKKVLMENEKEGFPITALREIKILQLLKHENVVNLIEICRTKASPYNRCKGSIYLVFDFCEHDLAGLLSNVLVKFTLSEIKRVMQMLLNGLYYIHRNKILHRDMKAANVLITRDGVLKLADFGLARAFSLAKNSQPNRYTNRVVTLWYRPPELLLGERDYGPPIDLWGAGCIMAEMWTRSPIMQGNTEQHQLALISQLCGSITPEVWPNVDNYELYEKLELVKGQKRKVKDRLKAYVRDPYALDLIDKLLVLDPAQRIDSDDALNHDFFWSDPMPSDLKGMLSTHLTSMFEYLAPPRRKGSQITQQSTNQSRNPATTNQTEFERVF
T3 sequence (P27361 whole entry): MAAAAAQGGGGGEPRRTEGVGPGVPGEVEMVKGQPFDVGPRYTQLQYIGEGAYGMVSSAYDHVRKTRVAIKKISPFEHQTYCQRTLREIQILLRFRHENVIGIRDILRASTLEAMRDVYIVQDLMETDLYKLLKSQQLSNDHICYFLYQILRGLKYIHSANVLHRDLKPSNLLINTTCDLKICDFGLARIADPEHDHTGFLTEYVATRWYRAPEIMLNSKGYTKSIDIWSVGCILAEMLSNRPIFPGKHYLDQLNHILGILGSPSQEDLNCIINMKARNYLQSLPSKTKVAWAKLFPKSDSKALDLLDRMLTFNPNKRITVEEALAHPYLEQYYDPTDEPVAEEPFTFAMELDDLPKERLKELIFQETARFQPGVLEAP

As to `Nc1nc(Nc2ccc3c(c2)CC[C@@H](N2CCCC2)CC3)nn1-c1cc2c(nn1)-c1ccccc1CCC2` [R428], the percent of control binding at 10 µM in assay [1] (setting [25]) worked out at 3.9%; in assay [2] (setting [25]) it was 0.7%; in assay [3] (setting [25]), 60%; in assay [4] (setting [25]), 92%; in assay [5] (setting [25]), 0%; in assay [6] (setting [25]), 100%. Further, the percent of control binding at 10 µM was found to be 31% in assay [7] (setting [25]); 0.65% in [8] (setting [25]); 0.15% in assay [9] (setting [25]); 100% in assay [10] (setting [25]); 3% in assay [11] (setting [25]); 45% in [12] (setting [25]). Moreover, the percent of control binding at 10 µM in [13] (setting [25]) was determined as 74%; in assay [14] (setting [25]), 23%; in assay [15] (setting [25]), 18%; in [16] (setting [25]), 4.8%; in assay [17] (setting [25]) it was 78%; in [18] (setting [25]), 100%. Also, the percent of control binding at 10 µM worked out at 84% in [19] (setting [25]); 1.7% in [20] (setting [25]); 34% in assay [21] (setting [25]); 30% in assay [22] (setting [25]); 14% in assay [23] (setting [25]); 30% in assay [24] (setting [25]).
As for `Cc1cc(CSc2ccccc2C(=O)NCCNc2ccc(C(F)(F)F)cc2[N+](=O)[O-])on1` [RU-301], the remaining binding at 10 µM in assay [1] (setting [26]) came to 100%; in assay [2] (setting [26]), 100%; in [3] (setting [26]), 77%; in assay [4] (setting [26]), 95%; in [5] (setting [26]) it was 97%; in [6] (setting [26]) it was 100%. Further, the remaining binding at 10 µM amounted to 100% in assay [7] (setting [26]); 100% in [8] (setting [26]); 89% in assay [9] (setting [26]); 84% in assay [10] (setting [26]); 75% in assay [11] (setting [26]); 100% in assay [12] (setting [26]). The remaining binding at 10 µM in [13] (setting [26]) was 97%; in [14] (setting [26]) it was 78%; in assay [15] (setting [26]) it was 76%; in assay [16] (setting [26]), 100%; in assay [17] (setting [26]) it was 93%; in [18] (setting [26]) it was 100%. In addition, the remaining binding at 10 µM in assay [19] (setting [26]) is 86%; in assay [20] (setting [26]), 81%; in [21] (setting [26]) it was 83%; in assay [22] (setting [26]), 100%; in assay [23] (setting [26]) it was 96%; in [24] (setting [26]) it was 91%.
